In the supplement of paper PMC10307832:

Experiments:
Experiment in all cases: relative viability (nuclei count vs DMSO), 5 days (fraction); higher = more cells survive
Kobe2602 + Alpelisib = compound: C1=CC(=CC=C1NC(=S)NNC2=C(C=C(C=C2[N+](=O)[O-])C(F)(F)F)[N+](=O)[O-])F [Kobe2602] + Cc1nc(NC(=O)N2CCC[C@H]2C(N)=O)sc1-c1ccnc(C(C)(C)C(F)(F)F)c1 [Alpelisib] (partner 2 µM)
Summary of the method: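 Medians of duplicate plates are given as relative viability. That measure is the nuclei count in treated wells divided by the count in vehicle wells. Counts were taken on 4× images of lung cancer cell lines in 1536-well plates, 5 days after pin-tool dosing the day after seeding with one drug alone or a fixed anchor-drug dose plus five library-drug doses (not always all listed) in √10 steps.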

Zosuquidar = compound: O[C@@H](COc1cccc2ncccc12)CN1CCN([C@@H]2c3ccccc3[C@@H]3[C@H](c4ccccc42)C3(F)F)CC1 [Zosuquidar]
Summary of the method: (§1)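 Lung cancer cell lines received five library-drug doses (not always all listed) spaced by √10, pinned on vehicle-anchored 1536-well plates after an overnight stay at 37 °C. Five days later, with no medium change, nuclei were Hoechst-stained, imaged at 4× and counted with MetaXpress. Viability is treated-well nuclei relative to vehicle-well nuclei, as a median across plates. Passing plates had control CV below 25% and at least one doubling.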

Kobe2602 = compound: C1=CC(=CC=C1NC(=S)NNC2=C(C=C(C=C2[N+](=O)[O-])C(F)(F)F)[N+](=O)[O-])F [Kobe2602]
Summary of the method: as §1

Cabozantinib = compound: COc1cc2nccc(Oc3ccc(NC(=O)C4(C(=O)Nc5ccc(F)cc5)CC4)cc3)c2cc1OC [Cabozantinib]
Summary of the method: as §1

NCI-H2087
relative viability (Kobe2602 + Alpelisib; first compound 0.2 µM): 1.27 | relative viability (Kobe2602 + Alpelisib; first compound 0.6325 µM): 1.08 | relative viability (Kobe2602 + Alpelisib; first compound 2 µM): 1.09 | relative viability (Kobe2602 + Alpelisib; first compound 6.325 µM): 1.11 | relative viability (Kobe2602 + Alpelisib; first compound 20 µM): 1.03 | relative viability (Zosuquidar; 0.01 µM): 1.06 | relative viability (Zosuquidar; 0.03162 µM): 0.971 | relative viability (Zosuquidar; 0.1 µM): 0.907 | relative viability (Zosuquidar; 0.3162 µM): 1.19 | relative viability (Zosuquidar; 1 µM): 1.07 | relative viability (Kobe2602; 0.2 µM): 1.02 | relative viability (Kobe2602; 0.6325 µM): 1.08 | relative viability (Kobe2602; 2 µM): 0.995 | relative viability (Kobe2602; 6.325 µM): 1.08 | relative viability (Kobe2602; 20 µM): 1.13 | relative viability (Cabozantinib; 0.02 µM): 1.09 | relative viability (Cabozantinib; 0.06325 µM): 1.16 | relative viability (Cabozantinib; 0.2 µM): 1.03 | relative viability (Cabozantinib; 0.6325 µM): 0.922 | relative viability (Cabozantinib; 2 µM): 1.02

LK-2
relative viability (Kobe2602 + Alpelisib; first compound 0.2 µM): 1.04 | relative viability (Kobe2602 + Alpelisib; first compound 0.6325 µM): 1.2 | relative viability (Kobe2602 + Alpelisib; first compound 2 µM): 1.26 | relative viability (Kobe2602 + Alpelisib; first compound 6.325 µM): 1.07 | relative viability (Kobe2602 + Alpelisib; first compound 20 µM): 1.04 | relative viability (Zosuquidar; 0.01 µM): 0.997 | relative viability (Zosuquidar; 0.03162 µM): 1.03 | relative viability (Zosuquidar; 0.1 µM): 0.934 | relative viability (Zosuquidar; 0.3162 µM): 1.11 | relative viability (Zosuquidar; 1 µM): 1.01 | relative viability (Kobe2602; 0.2 µM): 1.14 | relative viability (Kobe2602; 0.6325 µM): 1.12 | relative viability (Kobe2602; 2 µM): 0.974 | relative viability (Kobe2602; 6.325 µM): 0.887 | relative viability (Kobe2602; 20 µM): 1.19 | relative viability (Cabozantinib; 0.02 µM): 0.764 | relative viability (Cabozantinib; 0.06325 µM): 1.26 | relative viability (Cabozantinib; 0.2 µM): 0.924 | relative viability (Cabozantinib; 0.6325 µM): 0.927 | relative viability (Cabozantinib; 2 µM): 0.926

NCI-H1623
relative viability (Zosuquidar; 0.01 µM): 0.98 | relative viability (Zosuquidar; 0.03162 µM): 0.898 | relative viability (Zosuquidar; 0.1 µM): 0.879 | relative viability (Zosuquidar; 0.3162 µM): 1 | relative viability (Zosuquidar; 1 µM): 1.02 | relative viability (Kobe2602; 0.2 µM): 1.04 | relative viability (Kobe2602; 0.6325 µM): 1 | relative viability (Kobe2602; 2 µM): 1.03 | relative viability (Kobe2602; 6.325 µM): 0.9 | relative viability (Kobe2602; 20 µM): 0.933 | relative viability (Cabozantinib; 0.02 µM): 0.959 | relative viability (Cabozantinib; 0.06325 µM): 1.13 | relative viability (Cabozantinib; 0.2 µM): 0.731 | relative viability (Cabozantinib; 0.6325 µM): 1 | relative viability (Cabozantinib; 2 µM): 0.972

SW 900
relative viability (Zosuquidar; 0.01 µM): 0.904 | relative viability (Zosuquidar; 0.03162 µM): 0.889 | relative viability (Zosuquidar; 0.1 µM): 0.705 | relative viability (Zosuquidar; 0.3162 µM): 1.22 | relative viability (Zosuquidar; 1 µM): 0.759 | relative viability (Kobe2602; 0.2 µM): 0.987 | relative viability (Kobe2602; 0.6325 µM): 0.861 | relative viability (Kobe2602; 2 µM): 0.83 | relative viability (Kobe2602; 6.325 µM): 0.906 | relative viability (Kobe2602; 20 µM): 0.975 | relative viability (Cabozantinib; 0.02 µM): 0.807 | relative viability (Cabozantinib; 0.06325 µM): 1.14 | relative viability (Cabozantinib; 0.2 µM): 0.815 | relative viability (Cabozantinib; 0.6325 µM): 0.959 | relative viability (Cabozantinib; 2 µM): 0.903

NCI-H1650
relative viability (Zosuquidar; 0.01 µM): 0.885 | relative viability (Zosuquidar; 0.03162 µM): 0.929 | relative viability (Zosuquidar; 0.1 µM): 0.876 | relative viability (Zosuquidar; 0.3162 µM): 1.06 | relative viability (Zosuquidar; 1 µM): 0.912 | relative viability (Kobe2602; 0.2 µM): 0.891 | relative viability (Kobe2602; 0.6325 µM): 1.02 | relative viability (Kobe2602; 2 µM): 0.99 | relative viability (Kobe2602; 6.325 µM): 0.913 | relative viability (Kobe2602; 20 µM): 0.846 | relative viability (Cabozantinib; 0.02 µM): 0.925 | relative viability (Cabozantinib; 0.06325 µM): 1.13 | relative viability (Cabozantinib; 0.2 µM): 0.805 | relative viability (Cabozantinib; 0.6325 µM): 1.02 | relative viability (Cabozantinib; 2 µM): 0.89

NCI-H2342
relative viability (Zosuquidar; 0.01 µM): 0.876 | relative viability (Zosuquidar; 0.03162 µM): 0.964 | relative viability (Zosuquidar; 0.1 µM): 0.758 | relative viability (Zosuquidar; 0.3162 µM): 1.11 | relative viability (Zosuquidar; 1 µM): 1 | relative viability (Kobe2602; 0.2 µM): 1.03 | relative viability (Kobe2602; 0.6325 µM): 1.06 | relative viability (Kobe2602; 2 µM): 0.92 | relative viability (Kobe2602; 6.325 µM): 0.946 | relative viability (Kobe2602; 20 µM): 1.12 | relative viability (Cabozantinib; 0.02 µM): 0.909 | relative viability (Cabozantinib; 0.06325 µM): 1.02 | relative viability (Cabozantinib; 0.2 µM): 0.866 | relative viability (Cabozantinib; 0.6325 µM): 0.952 | relative viability (Cabozantinib; 2 µM): 0.888

ChaGo-K-1
relative viability (Zosuquidar; 0.01 µM): 1.02 | relative viability (Zosuquidar; 0.03162 µM): 0.998 | relative viability (Zosuquidar; 0.1 µM): 0.978 | relative viability (Zosuquidar; 0.3162 µM): 1.02 | relative viability (Zosuquidar; 1 µM): 0.999 | relative viability (Kobe2602; 0.2 µM): 1.09 | relative viability (Kobe2602; 0.6325 µM): 1.04 | relative viability (Kobe2602; 2 µM): 0.946 | relative viability (Kobe2602; 6.325 µM): 0.979 | relative viability (Kobe2602; 20 µM): 0.972 | relative viability (Cabozantinib; 0.02 µM): 1.06 | relative viability (Cabozantinib; 0.06325 µM): 1.05 | relative viability (Cabozantinib; 0.2 µM): 1 | relative viability (Cabozantinib; 0.6325 µM): 0.909 | relative viability (Cabozantinib; 2 µM): 1.01

NCI-H1648
relative viability (Zosuquidar; 0.01 µM): 0.969 | relative viability (Zosuquidar; 0.03162 µM): 0.947 | relative viability (Zosuquidar; 0.1 µM): 0.676 | relative viability (Zosuquidar; 0.3162 µM): 0.673 | relative viability (Zosuquidar; 1 µM): 0.852 | relative viability (Kobe2602; 0.2 µM): 1.22 | relative viability (Kobe2602; 0.6325 µM): 0.902 | relative viability (Kobe2602; 2 µM): 0.701 | relative viability (Kobe2602; 6.325 µM): 0.824 | relative viability (Kobe2602; 20 µM): 0.763 | relative viability (Cabozantinib; 0.02 µM): 0.868 | relative viability (Cabozantinib; 0.06325 µM): 0.991 | relative viability (Cabozantinib; 0.2 µM): 0.629 | relative viability (Cabozantinib; 0.6325 µM): 1.07 | relative viability (Cabozantinib; 2 µM): 0.802

NCI-H522
relative viability (Zosuquidar; 0.01 µM): 1.01 | relative viability (Zosuquidar; 0.03162 µM): 0.809 | relative viability (Zosuquidar; 0.1 µM): 0.955 | relative viability (Zosuquidar; 0.3162 µM): 1.06 | relative viability (Zosuquidar; 1 µM): 0.907 | relative viability (Kobe2602; 0.2 µM): 1.08 | relative viability (Kobe2602; 0.6325 µM): 1.11 | relative viability (Kobe2602; 2 µM): 0.997 | relative viability (Kobe2602; 6.325 µM): 0.895 | relative viability (Kobe2602; 20 µM): 0.979 | relative viability (Cabozantinib; 0.02 µM): 0.863 | relative viability (Cabozantinib; 0.06325 µM): 0.98 | relative viability (Cabozantinib; 0.2 µM): 0.897 | relative viability (Cabozantinib; 0.6325 µM): 0.98 | relative viability (Cabozantinib; 2 µM): 1.15
